Converted amounts (≈) assume the structure as drawn.
Experiments:
JRCSF = test: Primary isolate infectivity in peripheral blood lymphocytes, p24 ELISA: JRCSF; assay type: cell-based, HIV-1
Experimental: (§1) Infectivity studies were performed using the inhibition of HIV-1 infection of the gp41 derived peptides using receptor bearing cells for both HIV-1 T cell line adapted virus (HIV-1 IIIB) in MT2 cells and primary isolate virus (SF162, JRCSF and 89.6) in peripheral blood lymphocytes. Both involved the culture of the virus with the peptide or its scrambled form for 1 hr at 37° C., 5% CO2 and then subsequent addition of target cells for 7 days. Inhibition was assessed using an enzyme-linked immunosorbent assay (ELISA) of viral core protein p24 antigen.

HIV-1 = conditions: qualitative comparison
Experimental: Peptides were tested in vitro for inhibition of early steps in cell-free HIV-1 infection and direct cell-to-cell spread of virus using T-cell line-adapted and primary isolates and recombinant HIV-1 viruses pseudotyped for env using CCR5, CXCR4 or both coreceptors.
Selected de novo designed peptides according to the invention (S291, N36E, W37Q and W371) and the new analogues of T20, T21 and DP219 were evaluated for inhibition of both cell-free HIV-1 infection and of direct cell-to-cell spread using a range of T-cell line-adapted and primary isolates and recombinant HIV-1 pseudotyped for env derived from patient isolates of different clades.

HIV-1 IIIB = assay type: cell-based; conditions: lab-adapted HIV-1 IIIB
Experimental: Both involved the culture of the virus with the peptide or its scrambled form for 1 hr at 37° C., 5% CO2 and then subsequent addition of target cells for 7 days. Inhibition was assessed using an enzyme-linked immunosorbent assay (ELISA) of viral core protein p24 antigen.

BR94 = test: Primary isolate infectivity in PBMCs: patient isolate BR94 (clade B); assay type: cell-based, HIV-1
89.6 = test: Primary isolate infectivity in peripheral blood lymphocytes, p24 ELISA: 89.6; assay type: cell-based, HIV-1; conditions: primary isolate 89.6
Experimental: as §1

SF162 = test: Primary isolate infectivity in peripheral blood lymphocytes, p24 ELISA: SF162; assay type: cell-based, HIV-1
Experimental: as §1

CC[C@H](C)[C@H](NC(=O)[C@H](CC(C)C)NC(=O)[C@H](CO)NC(=O)[C@H](Cc1ccc(O)cc1)NC(=O)[C@@H](NC(=O)[C@H](CC(C)C)NC(=O)[C@H](CO)NC(=O)[C@@H](NC(=O)[C@H](Cc1ccc(O)cc1)NC(=O)[C@H](CC(N)=O)NC(=O)[C@H](CC(=O)O)NC(=O)[C@@H](NC(=O)[C@H](CCC(=O)O)NC(=O)[C@H](CCCNC(=N)N)NC(=O)[C@H](CCC(=O)O)NC(=O)[C@H](Cc1c[nH]c2ccccc12)NC(=O)[C@H](CCC(=O)O)NC(=O)[C@H](CCSC)NC(=O)[C@H](Cc1c[nH]c2ccccc12)NC(=O)[C@@H](NC(=O)[C@H](CCSC)NC(=O)[C@H](CC(N)=O)NC(=O)[C@H](CC(N)=O)NC(=O)[C@H](Cc1c[nH]c2ccccc12)NC(=O)[C@@H](NC(=O)[C@H](CCC(N)=O)NC(=O)[C@H](CCC(=O)O)NC(=O)[C@H](CC(C)C)NC(=O)[C@@H](N)CO)[C@@H](C)CC)[C@@H](C)O)[C@@H](C)CC)[C@@H](C)O)[C@@H](C)CC)C(=O)O [Peptide S29I]
Primary isolate (ID50) JRCSF (JRCSF): >50 µg/mL
activity compared with the new analogues of T-20, T-21 and DP219 (HIV-1): broadly similar levels of activity
ID50% HIV-1IIIB infectivity (HIV-1 IIIB): 9.37 µg/mL (≈ 2.55 µM)
ID90 HIV-1IIIB infectivity (HIV-1 IIIB): 25 µg/mL (≈ 6.8 µM)
MIC HIV-1IIIB infectivity (HIV-1 IIIB): 6.3 µg/mL (≈ 1.71 µM)
Primary isolate (ID50) BR94 (BR94): 0 µg/mL
Primary isolate (ID50) 89.6 (89.6): 50 µg/mL
Primary isolate (ID50) SF162 (SF162): 0.06 µg/mL
